# Test results: publication PMC11435058, “Synthesis of New Thiazole-Privileged Chalcones as Tubulin Polymerization Inhibitors with Potential Anticancer Activities” (Pharmaceuticals, 2024)
# Key:
# Test in all cases: NCI-60 anticancer screen (SRB; single dose and five doses)
# MDA-MB-468 = type: cell-based, human; details: Homo sapiens, 48 h; MDA-MB-468; dose of 10 μM; read-out: Growth Percentage
# Method in brief: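 NCI panel of about 60 human tumor cell lines treated with compound at a single concentration (10μM) for 48 h. Growth measured by SRB protein staining and expressed as percent growth of treated versus untreated control cells.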
# RPMI-8226 = details: Homo sapiens, RPMI-8226, 48 h, read-out: Growth Percentage
# SR = details: Homo sapiens, 48 h, read-out: Growth Percentage
# EKVX = details: Homo sapiens, 48 h, read-out: Growth Percentage
# HOP-62 = details: Homo sapiens, HOP-62, 48 h, read-out: Growth Percentage
# HOP-92 = details: Homo sapiens, HOP-92, 48 h, read-out: Growth Percentage
# NCI-H322M = details: Homo sapiens, 48 h, read-out: Growth Percentage
# NCI-H460 = details: Homo sapiens, NCI-H460, 48 h, read-out: Growth Percentage
# SW-620 = details: Homo sapiens, SW-620, 48 h, read-out: Growth Percentage
# SF-268 = details: Homo sapiens, SF-268, 48 h, read-out: Growth Percentage
# SF-295 = details: Homo sapiens, SF-295, 48 h, read-out: Growth Percentage
# SF-539 = details: Homo sapiens, SF-539, 48 h, read-out: Growth Percentage
# SNB-75 = details: Homo sapiens, SNB-75, 48 h, read-out: Growth Percentage
# M14 = details: Homo sapiens, M14, 48 h, read-out: Growth Percentage
# SK-MEL-28 = details: Homo sapiens, SK-MEL-28, 48 h, read-out: Growth Percentage
# UACC-62 = details: Homo sapiens, UACC-62, 48 h, read-out: Growth Percentage
# A498 = details: Homo sapiens, A498, 48 h, read-out: Growth Percentage, A498; dose of 10 μM
# ACHN = details: Homo sapiens, 48 h, read-out: Growth Percentage
# CAKI-1 = details: Homo sapiens, CAKI-1, 48 h, read-out: Growth Percentage
# SN12C = details: Homo sapiens, 48 h, read-out: Growth Percentage
# PC-3 = details: Homo sapiens, PC-3, 48 h, read-out: Growth Percentage
# DU-145 = details: Homo sapiens, DU-145, 48 h, read-out: Growth Percentage
# MDA-MB-231/ATCC = details: Homo sapiens, MDA-MB-231, 48 h, read-out: Growth Percentage
# HS 578T = details: Homo sapiens, 48 h, read-out: Growth Percentage
# BT-549 = details: Homo sapiens, BT-549, 48 h, read-out: Growth Percentage
Structure (SMILES),activity at 10 µM (MDA-MB-468) [%],activity at 10 µM (RPMI-8226) [%],activity at 10 µM (SR) [%],activity at 10 µM (EKVX) [%],activity at 10 µM (HOP-62) [%],activity at 10 µM (HOP-92) [%],activity at 10 µM (NCI-H322M) [%],activity at 10 µM (NCI-H460) [%],activity at 10 µM (SW-620) [%],activity at 10 µM (SF-268) [%],activity at 10 µM (SF-295) [%],activity at 10 µM (SF-539) [%],activity at 10 µM (SNB-75) [%],activity at 10 µM (M14) [%],activity at 10 µM (SK-MEL-28) [%],activity at 10 µM (UACC-62) [%],activity at 10 µM (A498) [%],activity at 10 µM (ACHN) [%],activity at 10 µM (CAKI-1) [%],activity at 10 µM (SN12C) [%],further results
"Cc1[nH]c(=S)sc1C(=O)/C=C/c1ccc(N(C)C)cc1 [2k, (E)-3-(4-(Dimethylamino)Phenyl)-1-(4-Methyl-2-Thioxo-2,3-Dihydrothiazol-5-yl)Prop-2-En-1-One]",35.4,41.5,57.4,67,86.2,119,81.1,85.7,89.9,99.3,79.8,88.7,96,83.2,92.7,58.7,130,75.7,68.6,75.7,activity at 10 µM (PC-3): 71.7%; activity at 10 µM (DU-145): 92.8%; activity at 10 µM (MDA-MB-231/ATCC): 90.3%; activity at 10 µM (HS 578T): 118%; activity at 10 µM (BT-549): 82.2%
"COc1cccc(/C=C/C(=O)c2sc(=S)[nH]c2C)c1OC [2m, (E)-3-(2,3-Dimethoxyphenyl)-1-(4-Methyl-2-Thioxo-2,3-Dihydrothiazol-5-yl)Prop-2-En-1-One]",41.1,9.09,5.15,54.5,91.8,61.5,62.8,40.1,47.9,54,26.3,22.7,50.4,54,70,45.5,109,52.5,41.9,45,activity at 10 µM (PC-3): 41.6%; activity at 10 µM (DU-145): 42%; activity at 10 µM (MDA-MB-231/ATCC): 68.3%; activity at 10 µM (HS 578T): 49.2%; activity at 10 µM (BT-549): 71%
